Measured values published in US7736624B2, “Methods and compositions for diagnostic and therapeutic targeting of COX-2” (priority 2006, dated 2010).
Entries after “also recorded” stand apart in the source; their conditions may differ.

Key:
[1] = tested on: 1483 Head/Neck Squamous Cell Carcinoma Cells; test: In vitro cell imaging, 1483 Head/Neck Squamous Cell Carcinoma Cells; type: cell-based; details: 1483 cells
[2] = tested on: liver tumors from SW620 cells; test: In vivo imaging of nude mice with liver metastases of SW620 cells; details: 5 mg/kg i.p.
Excerpt: Nude mice with liver tumors from SW620 cells (a human colorectal adenocarcinoma cell line that expresses a low level of COX-2 and that is available from ATCC) were obtained from Dr. Ray DuBois of the Vanderbilt-Ingram Cancer Center of Vanderbilt University (Nashville, Tenn., United States of America). Mice were obtained about 8-10 weeks after metastasis of the cells from the spleen. Control mice and mice bearing and tumor metastases were anesthetized and injected intraperitoneally (i.p.) with 5 mg/kg Compound 27vv. Images of injected mice were captured by a XENOGEN® IVIS® Imaging System (Xenogen Corp., Alameda, Calif., United States of America) using a Cy5.5 filter or a DsRed filter (1 second exposure/f2/high resolution/1.5 cm depth). […] At 5 hours post-injection, mice were euthanized and liver tumors were imaged by fluorescence microscopy.

[3] = tested on: HCA7 colorectal adenocarcinoma cells; test: In vivo imaging of nude mice xenografted with HCA7 cells; details: HCA7 subcutaneous xenograft
Excerpt: In parallel experiments, nude mice were xenografted with a subcutaneous injection on a lateral side of 1×10^6. HCA7 colorectal adenocarcinoma cells (Marsh et al. (1993) J Pathol 170:441-450).

[4] = Amounts of intact compound in tumors and normal tissues by HPLC-UV/MS; type: in vivo, Nude mice
Excerpt: Additionally, the presence of intact Compound 27vv in tumors and normal tissues were examined by high performance liquid chromatography (HPLC) and mass spectroscopy (MS). Tumors and other tissues were collected from treated mice and immediately frozen on dry ice. Tissues were homogenized in Tris buffer (pH=7.4) and proteins precipitated with acetonitrile (ACN). Protein pellets were collected by centrifugation and dried before reconstitution in Tris buffer pH 7.4 plus 10% methanol. Proteins were purified by reverse-phase solid=phase extraction (RP-SPE) and analyzed by HPLC-UV using the conditions set forth in Table 4:
A standard curve was generated for Compound 27vv between 1 and 15 nmoles. Linear regression analysis generated an equation for the resulting line of y=311624x+85461 (R^2=0.9956). Various normal and tumor samples were then analyzed and the amounts of Compound 27vv present in the samples were determined.
The putative Compound 27vv peak in the tumor samples was collected and analyzed by LCMS in order to verify its identity.

| level in normal liver tissue ([4]; HPLC and MS) | Amount of Compound 27vv in sample ([4]; Mouse 1 - giant tumor A) | Compound 27vv ([4]; Mouse 1 - giant tumor A) | Amount of Compound 27vv in sample ([4]; Mouse 1 - giant tumor B) | Compound 27vv ([4]; Mouse 1 - giant tumor B) | Amount of Compound 27vv in sample ([4]; Mouse 1 - giant tumor C) | Compound 27vv ([4]; Mouse 1 - giant tumor C) | Amount of Compound 27vv in sample ([4]; Mouse 1 - giant tumor D) | Compound 27vv ([4]; Mouse 1 - giant tumor D) | Compound 27vv nmol/g ([4]; Mouse 2 - normal liver lobe) | Compound 27vv nmol/g ([4]; Mouse 2 - small tumor) | Compound 27vv nmol/g ([4]; Mouse 2 - tissue between the lobes) | Structure (SMILES) | fluorescent staining of cells ([1]; 200 nM) | fluorescent staining after indomethacin pretreatment ([1]; indomethacin pretreatment) | in vivo fluorescence imaging ([2]; 30 minutes and 3-4 hours post-injection) | fluorescence microscopy of excised liver tumors ([2]; 5 hours post-injection) | tumor fluorescence in vivo and after removal of tumor masses [3] | intact compound in SW620 tumors ([4]; 5 hours post-injection, HPLC and MS) |
| --- | --- | --- | --- | --- | --- | --- | --- | --- | --- | --- | --- | --- | --- | --- | --- | --- | --- | --- |
|  |  |  |  |  |  |  |  |  |  |  |  | COc1ccc2c(c1)c(CC(=O)NCCCCNC(=O)c1ccc(C3=c4cc5c6c(c4Oc4c3cc3c7c4CCCN7CCC3)CCC[N+]=6CCC5)c(C(=O)[O-])c1)c(C)n2C(=O)c1ccc(Cl)cc1 [Compound 27eee] | good specific staining; also recorded: considerable fluorescence | reducible by pretreatment with indomethacin |  |  |  |  |
| below the limit of detection | 3.3 nmol | 31.1 nmol/g | 1.8 nmol | 15.3 nmol/g | 4.7 nmol | 41.1 nmol/g | 0.2 nmol | 0.9 nmol/g | <Std. A | <Std. A | <Std. A | COc1ccc2c(c1)c(CC(=O)NCCCCNC(=O)c1ccc(C(=O)[O-])c(C3=c4cc5c6c(c4Oc4c3cc3c7c4CCCN7CCC3)CCC[N+]=6CCC5)c1)c(C)n2C(=O)c1ccc(Cl)cc1 [Compound 27vv] |  |  | liver-specific imaging | strongly fluoresced | strong tumor-specific fluorescence | confirmed the presence of intact Compound 27vv |
